Laboratory results: patent US4002615A, “Terpenoid compounds of substituted hydroxyalkyl-pyridines having juvenile hormone activity” (A/S Cheminova, priority 1974, dated 1977)
Values after ≈ are worked out from the molar mass of the structure shown.

Columns and labels:
Format in all cases: in vivo
Culex pipiens L. = assay: Culex test (mature larvae, loss of 50% of test animals); details: concentration producing loss of 50% of test animals, mixtures of isomers, read-out: IC-50 eclos.
Method: (§1) The biological tests are examplified by tests on Tenebrio molitor L, Galleria mellonella L. and Culex pipiens L.
The compounds are tested on mature larvae. The concentration (IC-50 eclos.) is given in ppm.

Galleria mellonella L. = assay: Galleria test (eggs on impregnated filter paper, prevention of eclosion); details: amount preventing eclosion of 50% of the eggs, mixtures of isomers
Method: as §1
The test is performed on eggs deposited on impregnated filter paper by the mother moth. The data given in table 2, are the amount necessary for preventing eclosion of 50% of the eggs. The amount (IC-50 eclos.) is given in mg./65 cm^2.

Tenebrio molitor L = assay: Tenebrio test (topical application to pupae, inhibition of adult characters); details: topical in acetone to abdomen of 0.5 to 2 hours old pupae; 27° C, 70% RH; mixtures of isomers
Method: as §1
The material in question is applied topically to the abdomen of 0.5 to 2 hours old pupae of the said species, as a solution in acetone. The pupae are held at 27° C and 70% RH, ecdysis occuring 5 to 7 days later. The degree of inhibition of adult characters is referred to an arbitrary scale, where a morphologically perfect adult is given the character 0%, and a perfect second pupae 100%.

Structure (SMILES) | LC50 (Culex pipiens L.) [µg/mL] | IC-50 eclos. (Galleria mellonella L.) [mg/65 cm^2] | ID-50 morph. (Tenebrio molitor L) [μg/pupa]
CC(C)=CCCC(C)=CCOCc1ccccn1 [Compound 1, 3,7-dimethyl-2,6-octadien-1-yl-(2-pyridyl)methylether] | 5 (≈ 20.4 µM) |  | 
CC(C)=CCCC(C)=CCOCc1ccncc1 [Compound 3, 3,7-dimethyl-2,6-octadien-1-yl-(4-pyridyl)methylether] | > 10 |  | 
CC(=CCOCc1ccccn1)CCC1OC1(C)C (stereo not shown) [Compound 4, 6,7-epoxy-3,7-dimethyl-2-octen-1-yl-(2-pyridyl)methylether] | 9 (≈ 34.4 µM) |  | 
CCc1ccc(COCC=C(C)CCC2OC2(C)C)nc1 (stereo not shown) [Compound 6, 6,7-epoxy-3,7-dimethyl-2-octen-1-yl-(5-ethyl-2-pyridyl)methylether] | 0.005 (≈ 0.0173 µM) |  | 
CC(C)=CCCC(C)=CCOCc1cccc(C)n1 [Compound 8, 3,7-dimethyl-2,6-octadien-1-yl-(6-methyl-2-pyridyl)methylether] | 10 (≈ 38.6 µM) | > 10 | 4
